For the assay, the system named is Neisseria gonorrhoeae, GC525 (NG-2888). Kind of assay: in-vitro antibacterial activity, microbroth dilution MIC susceptibility testing. It is filed as cell-based. The note with it: microbroth dilution in gonococcal broth, 20-24 hours at 35 C, lowest concentration preventing visible growth. Further details: unit: ug/mL. On the procedure: The in-vitro antibacterial activity of selected compounds was determined against a stain of Neisseria gonorrhoeae, GC525 (NG-2888), which is described by Rouquette-Loughlin et al, in Journal of Bacteriology, February 2003, p. 1101-1106, at p. 1103. In general, minimum inhibitory concentration (MIC) susceptibility testing followed procedures recommended by the National Committee for Clinical Laboratory Standards (NCCLS^1-2) or followed the descriptions described below:
Neisseria gonorrhoeae strains were grown on Chocolate Agar II plates (BBL—Becton Dickinson Microbiology Systems, Cockeysville, Md.) and incubated at 35° C. in a humidified 5% CO2 incubator (Form a Scientific, Marietta Ohio). For microbroth dilution MIC testing, N. gonorrhoeae were tested in gonococcal broth (GCB):
Gram stains were also utilized. Permanent Stock Culture Collection
Bacterial stock cultures are stored as frozen suspensions at −70 C. N. gonorrhoeae cultures are suspended in inactivated Horse Serum (Colorado Serum Company, Denver, Colo.) containing 7.5% glucose prior to snap freezing in a dry ice/ethanol bath.
Preparation of Standardized Test Inocula and Plate Inoculation
Frozen stock cultures were used as the initial source of organisms for performing microbroth dilution MIC testing. Stock cultures were passed on their respective growth medium at least one growth cycle (18-24 hours) prior to their use. Bacterial culture suspensions were prepared directly from Chocolate Agar II plates into 10 mL cation-adjusted Mueller-Hinton Broth (CAMHB, BBL, # BB215069). Before use, cultures were adjusted to an optical density value of 1.6-2 on a Perkin-Elmer Lambda EZ150 Spectrophotometer (Wellesley, Mass.) set at a wavelength of 600 nm. Random cultures were plated for validation of actual colony counts. The adjusted cultures were diluted 400-fold (0.25 mL inoculum+100 mL GCB) into gonococcal broth producing a starting inoculum of approximately 5×10^5 cfu/mL. These cultures were inoculated into test plates (100 uL/well) using a Biomek® FX workstation (Beckman Coulter Inc., Fullerton, Calif.). The inoculated plates were placed in stacks of no more than 4 and covered with an empty plate. Plates were incubated for 20-24 hours at 35 C in a humidified CO2 incubator.
Test Compound (“Drug”) Preparation
Drug stock solutions (2 mg/mL in DMSO) were prepared on the day of testing. Drugs were weight corrected for assay content where necessary.
Drug Dilution Tray Preparation
Microbroth dilution stock plates were prepared in two dilution series, 64-0.06 ug drug/mL and 1-0.001 ug drug/mL. For the high concentration series, 200 uL of stock solution (2 mg/mL) was added to duplicate rows of a 96-well plate. This was used as the first well in the dilution series. Serial two-fold decremental dilutions were made using a BioMek FX robot (Beckman Coulter Inc., Fullerton, Calif.) with 10 of the remaining 11 wells, each of which contained 100 uL of the appropriate solvent/diluent. Row 12 contained solvent/diluent only and served as the control. For tube one of the low concentration series, 200 uL of a 31.25 ug/mL stock was added to duplicate rows of a 96-well plate. Serial two-fold dilutions were made as described above.
Daughter plates were spotted (3.2 uL/well) from the stock plates listed above using the BioMek FX robot and were inoculated with organism (100 uL/well) as described previously.
After incubation, the degree of growth in each well was read visually with the aid of a Test Reading Mirror (Dynatech Lab 220-16, Dynex Technologies, Chantilly, Va.). 96-well test plates are read in a darkened room with a single light shining from above. The MIC is the lowest concentration of drug that prevents macroscopically visible growth under the conditions of the test. […] If MIC values in duplicate tests differ by 1 well (two-fold), the […] value is reported. If duplicate tests vary by 2 dilutions (four-fold), the middle value is reported.

[1] abbreviates: Neisseria gonorrhoeae, read-out: MIC.

Converted amounts (≈) assume the structure as drawn. Read-outs that look alike come from different tables or passages of the source.

With `CCNC(=O)Nc1nc2cc(-c3ccc(F)cc3C)cc(C(=O)NCC)n2n1` [Example 63, 2-(3-Ethyl-ureido)-7-(4-fluoro-2-methyl-phenyl)-[1,2,4]triazolo[1,5-a]pyridine-5-carboxylic acid ethylamide], the MIC under setting [1] is 8 mg/L (≈ 20.8 µM).

With `CCNC(=O)Nc1nc2cc(-c3cccc(C(F)(F)F)c3)cc(C(=O)NCC)n2n1` [Example 99, 2-(3-Ethyl-ureido)-7-(3-trifluoromethyl-phenyl)-[1,2,4]triazolo[1,5-a]pyridine-5-carboxylic acid ethylamide], the MIC under setting [1] came out at 8 mg/L (≈ 19 µM). The same measure, in the same setting: next, `CCNC(=O)Nc1nc2cc(-c3cccnc3)cc(C(=O)NC3CCC3)n2n1` [Example 75, 2-(3-Ethyl-ureido)-7-pyridin-3-yl-[1,2,4]triazolo[1,5-a]pyridine-5-carboxylic acid cyclobutylamide]: 2 mg/L (≈ 5.27 µM); `CCNC(=O)Nc1nc2cc(-c3cccnc3)cc(-c3cncs3)n2n1` [Example 125, 1-Ethyl-3-[5-(thiazol-5-yl)-7-pyridin-3-yl-[1,2,4]triazolo[1,5-a]pyridin-2-yl]-urea]: 0.06 mg/L (≈ 0.164 µM). Consider `CCNC(=O)Nc1nc2cc(C3=CCOCC3)cc(C(=O)NCC)n2n1` [Example 33, 7-(3,6-Dihydro-2H-pyran-4-yl)-2-(3-ethyl-ureido)-[1,2,4]triazolo[1,5-a]pyridine-5-carboxylic acid ethyl amide], for which the MIC under setting [1] was > 64 mg/L. Same read-out and setting: for `CCNC(=O)Nc1nc2cc(-c3cccnc3)cc(N(C)C3CCN(C)C3)n2n1` (stereo not drawn) [Example 150, 1-Ethyl-3-(5-[methyl-(1-methyl-pyrrolidin-3-yl)-amino]-7-pyridin-3-yl-[1,2,4]triazolo[1,5-a]pyridin-2-yl)-urea] the value was 32 mg/L (≈ 81.1 µM); for `CCNC(=O)Nc1nc2cc(-c3cccnc3)cc(-c3cnc(C)n3C)n2n1` [Example 135, N-[5-(1,2-Dimethyl-1H-imidazol-5-yl)-7-pyridin-3-yl[1,2,4]triazolo[1,5-a]pyridin-2-yl]-N′-ethylurea], 8 mg/L (≈ 21.3 µM). Consider `CCNC(=O)Nc1nc2cc(-c3cccnc3)cc(/C=N/O)n2n1` [Example 24, N-Ethyl-N′-{5-[(E)-(hydroxyimino)methyl]-7-pyridin-3-yl[1,2,4]triazolo[1,5-a]pyridin-2-yl}urea], for which the MIC under setting [1] was > 64 mg/L. Take `CCNC(=O)Nc1nc2cc(-c3cccc(C(C)C)c3)cc(C(=O)NCC)n2n1` [Example 62, 2-(3-Ethyl-ureido)-7-(3-isopropyl-phenyl)-[1,2,4]triazolo[1,5-a]pyridine-5-carboxylic acid ethylamide]: under setting [1], the minimum inhibitory concentration (MIC) is 2 mg/L (≈ 5.07 µM).

In the case of `CCNC(=O)Nc1nc2cc(-c3cccnc3)cc(C(=O)NCc3ccccc3)n2n1` [Example 11, 2-(3-Ethyl-ureido)-7-pyridin-3-yl-[1,2,4]triazolo[1,5-a]pyridine-5-carboxylic acid benzylamide], the MIC under setting [1] is > 64 mg/L. Regarding `CCNC(=O)Nc1nc2cc(-c3cccnc3)cc(-c3nnc(CC(C)=O)o3)n2n1` [Example 28, 1-Ethyl-3-{5-[5-(2-oxo-propyl)-[1,3,4]oxadiazol-2-yl]-7-pyridin-3-yl-[1,2,4]triazolo[1,5-a]pyridin-2-yl}-urea], the MIC under setting [1] was > 64 mg/L. Take `CCNC(=O)Nc1nc2cc(-c3cccc(SC)c3)cc(C(=O)NCC)n2n1` [Example 60, 2-(3-Ethyl-ureido)-7-(3-methyl-sulfanyl-phenyl)-[1,2,4]triazolo[1,5-a]pyridine-5-carboxylic acid ethylamide]: under setting [1], the MIC is > 16 mg/L. In the case of `CCNC(=O)Nc1nc2cc(-c3cccnc3)cc(C(=O)C3CC3)n2n1` [Example 109, 1-(5-Cyclopropanecarbonyl-7-pyridin-3-yl-[1,2,4]triazolo[1,5-a]pyridine-2-yl)-3-ethyl-urea], the MIC under setting [1] stood at 2 mg/L (≈ 5.71 µM). Compound `CCNC(=O)Nc1nc2cc(-c3cccnc3)cc(C(=O)N(CC)CC)n2n1` [Example 14, 2-(3-Ethyl-ureido)-7-pyridin-3-yl-[1,2,4]triazolo[1,5-a]pyridine-5-carboxylic acid diethylamide] showed an MIC of 16 mg/L (≈ 41.9 µM). In the case of `CCNC(=O)Nc1nc2cc(-c3cccnc3)cc(C(=O)N3CCC(N(CC)CC)C3)n2n1` (stereo not drawn) [Example 49, 1-[5-(3-Diethylamino-pyrrolidine-1-carbonyl)-7-pyridin-3-yl-[1,2,4]triazolo[1,5-a]pyridin-2-yl]-3-ethyl-urea], the MIC under setting [1] was > 64 mg/L. On to `CCNC(=O)Nc1nc2cc(-c3cnccc3OC)cc(C(=O)NCC)n2n1` [Example 32, 2-(3-Ethyl-ureido)-7-(4-methoxy-pyridin-3-yl)-[1,2,4]triazolo[1,5-a]pyridine-5-carboxylic acid ethyl amide], for which, under setting [1], the minimum inhibitory concentration (MIC) was 1 mg/L (≈ 2.61 µM). As for “7-(2-Dimethylamino-pyrimidin-5-yl)-2-(3-isopropyl-ureido)-imidazo[1,2-a]pyridine-5-carboxylic acid ethylamide [Example 117]”, the MIC was >64.0 mg/L. For `CCNC(=O)Nc1nc2cc(-c3ccccc3F)cc(C(=O)NCC)n2n1` [Example 72, 2-(3-Ethyl-ureido)-7-(2-fluoro-phenyl)-[1,2,4]triazolo[1,5-a]pyridine-5-carboxylic acid ethylamide], under setting [1], the minimum inhibitory concentration (MIC) turned out to be 4 mg/L (≈ 10.8 µM).

On to `CCNC(=O)Nc1nc2cc(-c3cccnc3)cc(C(=O)NCc3cnccc3C(F)(F)F)n2n1` [Example 87, 2-(3-Ethyl-ureido)-7-pyridin-3-yl-[1,2,4]triazolo[1,5-a]pyridine-5-carboxylic acid(4-trifluoromethyl-pyridin-3-ylmethyl)-amide], for which the minimum inhibitory concentration (MIC) under setting [1] is 8 mg/L (≈ 16.5 µM).

In the case of `CCNC(=O)Nc1nc2cc(-c3cccnc3)cc(-c3nnc(C(C)C)o3)n2n1` [Example 29], the minimum inhibitory concentration (MIC) was >64.0 mg/L. `CCNC(=O)Nc1nc2cc(-c3cccnc3)cc(-c3cccnc3)n2n1` [Example 126, 1-(5,7-Di-pyridin-3-yl-[2,4]triazolo[1,5-a]pyridin-2-yl)-3-ethyl-urea] yielded a minimum inhibitory concentration (MIC) of 16.0 mg/L (≈ 44.5 µM). Regarding `CCNC(=O)Nc1nc2cc(-c3ccc(F)cc3)cc(C(=O)NCC)n2n1` [Example 69, 2-(3-Ethyl-ureido)-7-(4-fluoro-phenyl)-[1,2,4]triazolo[1,5-a]pyridine-5-carboxylic acid ethylamide], under setting [1], the MIC was determined as 8 mg/L (≈ 21.6 µM). With `CCNC(=O)Nc1nc2cc(-c3cccnc3)cc(C(=O)N(C)Cc3nnc(C)o3)n2n1` [Example 51, 2-(3-Ethyl-ureido)-7-pyridin-3-yl-[1,2,4]triazolo[1,5-a]pyridine-5-carboxylic acid methyl-(5-methyl-[1,3,4]oxadiazol-2-ylmethyl)-amide], the minimal inhibitory concentration (MIC) under setting [1] stood at 64 mg/L (≈ 147 µM).

Regarding `CCNC(=O)Nc1nc2cc(-c3cccnc3)cc(NC3CCN(C)CC3)n2n1` [Example 152, 1-Ethyl-3-[5-(1-methyl-piperidin-4-ylamino)-7-pyridin-3-yl[1,2,4]triazolo[1,5-a]pyridin-2-yl]-urea], under setting [1], the MIC amounted to 8 mg/L (≈ 20.3 µM). Regarding `CCNC(=O)Nc1nc2cc(-c3ccc(F)cc3F)cc(C(=O)NCC)n2n1` [Example 64, 7-(2,4-Difluoro-phenyl)-2-(3-ethyl-ureido)-[1,2,4]triazolo[1,5-a]pyridine-5-carboxylic acid ethylamide], the MIC under setting [1] was > 64 mg/L. Same read-out and setting: for `CCCC(=O)c1cc(-c2cccnc2)cc2nc(NC(=O)NCC)nn12` [Example 108, 1-(5-Butyryl-7-pyridin-3-yl-[1,2,4]triazolo[1,5-a]pyridine-2-yl)-3-ethyl-urea] the value was 2 mg/L (≈ 5.68 µM); for `CCNC(=O)Nc1nc2cc(-c3cc(C)c(OC)c(C)c3)cc(C(=O)NCC)n2n1` [Example 103, 2-(3-Ethyl-ureido)-7-(4-methoxy-3,5-dimethyl-phenyl)-[1,2,4]triazolo[1,5-a]pyridine-5-carboxylic acid ethylamide], > 64 mg/L.

(Values after US7524860B2, “Antibacterial agents” (Pfizer Inc., priority 2004, dated 2009).)
